These results are taken from ChEMBL document CHEMBL1144624, “1,2,3-Triazolylalkylribitol derivatives as nucleoside hydrolase inhibitors” (Bioorg Med Chem Lett, 2007).

Structures are written as SMILES. pKi: −log10 of the molar value.

This assay deals with T1, IAG-nucleoside hydrolase (Trypanosoma vivax, UniProt Q9GPQ4).
T1 sequence (Q9GPQ4 whole entry): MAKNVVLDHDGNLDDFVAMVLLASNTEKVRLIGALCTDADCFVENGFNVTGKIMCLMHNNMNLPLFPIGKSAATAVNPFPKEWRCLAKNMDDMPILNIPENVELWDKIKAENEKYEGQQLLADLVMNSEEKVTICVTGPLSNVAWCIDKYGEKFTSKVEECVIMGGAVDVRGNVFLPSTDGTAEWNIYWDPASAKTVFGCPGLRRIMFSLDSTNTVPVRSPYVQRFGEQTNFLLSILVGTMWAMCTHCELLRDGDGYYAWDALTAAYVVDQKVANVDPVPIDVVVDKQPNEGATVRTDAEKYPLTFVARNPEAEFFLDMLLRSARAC
The assay is described as follows: Inhibition of Trypanosoma vivax IAG-nucleoside hydrolase.
Compound `Cc1c(-c2ccccc2)nnn1C[C@@H]1O[C@H](CO)[C@@H](O)[C@H]1O` gave a negative logarithm of the Ki (pKi) of 4.06.

With `OC[C@H]1O[C@@H](CCn2cc(-c3ccccc3)nn2)[C@H](O)[C@@H]1O`, the pKi is 4.68.

Turning to `Cc1nnn(C[C@@H]2O[C@H](CO)[C@@H](O)[C@H]2O)c1-c1ccccc1`, the pKi was 3.28.

For `Cc1nnn(CC[C@@H]2O[C@H](CO)[C@@H](O)[C@H]2O)c1-c1ccccc1`, the pKi is 4.49. This pKi is 1.21 log units higher than that of the compound before.

The compound `[N-]=[N+]=NCC[C@@H]1O[C@H](CO)[C@@H](O)[C@H]1O` gave a pKi of 2.25.

The compound `CCc1nnn(CC[C@@H]2O[C@H](CO)[C@@H](O)[C@H]2O)c1CC` gave a pKi of 4.20.

`Cc1c(-c2ccccc2)nnn1CC[C@@H]1O[C@H](CO)[C@@H](O)[C@H]1O` gave a pKi of 5.64.

With `OC[C@H]1O[C@@H](CCn2cc(-c3ccccn3)nn2)[C@H](O)[C@@H]1O`, the pKi is 4.64.

Turning to `OC[C@H]1O[C@@H](CCn2nncc2-c2ccccc2)[C@H](O)[C@@H]1O`, the pKi is 3.17.
